{
  "source": "patent US10206894B2",
  "about": "“Compounds for use in treatment of mucositis” (priority 2011, dated 2019)",
  "key": {"[1]": {"test_system": "fractionated radiation and cisplatin induced oral mucositis, left buccal cheek pouch", "type": "in vivo", "settings": "for peak mean mucositis score: peak on Day 19", "method": "Seventy (70) male Syrian Golden Hamsters were used in this example. Mucositis was induced using a combination of fractionated radiation and cisplatin. Cisplatin was administered on Days 0 and 6 at a dose of 5 mg/kg by i.p. injection. Each hamster was administered a total radiation dose of 60 Gy directed to their left buccal cheek pouch split into eight equal fractions of 7.5 Gy provided on Days 0, 1, 2, 3, 6, 7, 8 and 9. Radiation was generated with a 160 kilovolt potential (15-ma) source at a focal distance of 50 cm, hardened with a 0.35 mm Cu filtration system. Irradiation targeted the left buccal pouch mucosa at a rate of 2.0 Gy/minute. Prior to irradiation, animals were anesthetized with an i.p. injection of ketamine (160 mg/mL) and xylazine (8 mg/mL). The left buccal pouch was everted, fixed and isolated using a lead shield. Test materials were administered topically to the left cheek pouch three times daily, as detailed in Table 3 at a dose of 3 mg/mL in a volume of 0.5 mL per dose, either on the days of radiation (Days 0-3, 6-9), the days on which radiation was not administered (−1, 4, 5 and 10), Days 0-12 or Days 0-35. Mucositis in the left cheek pouch was evaluated clinically starting on Day 7, and continuing on alternate days until Day 35. On Day 35, all animals were euthanized by CO2 inhalation and death was confirmed by monitoring heartbeat in accordance with USDA guidelines.\nThe mucositis score, weight change and survival were measured throughout the study. For the evaluation of mucositis, the animals were anesthetized with an inhalation anesthetic, and the left pouch everted. Mucositis was scored visually by comparison to a validated photographic scale, ranging from 0 for normal, to 5 for severe ulceration (as described above in Example 2). A score of 1-2 is considered to represent a mild stage of the disease, whereas a score of 3-5 is considered to indicate moderate to severe mucositis. Following visual scoring, a digital image was taken of each animal's mucosa using a standardized technique. At the conclusion of the experiment, images were randomly numbered and scored by two independent trained observers graded the photographs in blinded fashion using the above-described scale (blinded scoring).\nThe grade of mucositis was scored, beginning on day 7, and for every second day thereafter, through and including day 35, The effect on mucositis of each drug treatment compared to placebo was assessed according to the following parameters: the difference in the number of days hamsters in each group had ulcerative (score ≥3) mucositis and the rank sum differences in daily mucositis scores.\nOn each evaluation day, the number of animals with a blinded mucositis score of ≥3 in each drug treatment group was compared to the control group. Differences were compared on a cumulative basis and statistical significance was determined by chi-square analysis. Efficacy, in this analysis, is defined by a significant reduction in the number of days that a group of animals had ulcerations (scores ≥3) when compared to the control group.\nFor each evaluation day the scores of the control group were compared to those of the treated groups using non-parametric rank sum analysis. Treatment success was considered as a statistically significant lowering of scores in the treated group on 2 or more days from day 6 to day 28.\nAll animals were weighed daily and their survival recorded to assess possible differences in animal weight among treatment groups as an indication for mucositis severity and/or possible toxicity resulting from the treatments. No deaths were observed during this study.\nAn analysis of the severity of mucositis was performed using the Mann-Whitney rank sum analysis to compare the scores for each treatment group to the controls on each day of the analysis. In this analysis, 2 days of significant reduction in the mucositis score are generally required before it is regarded as meaningful."}, "[2]": {"test_system": "FaDu human head and neck cancer xenograft", "experiment": "Tumor growth and response to therapy in FaDu xenograft", "type": "in vivo, nude mice (nu/nu)", "settings": "for mice euthanized for tumor volume in excess of 1500 mm^3: vehicle groups 43.3%; for survival at Day 29: vehicle groups 26.7%; for mice euthanized for tumor ulceration: vehicle groups 30%", "method": "Ninety (90) male nude mice (nu/nu) were divided into nine (9) groups of ten […]) mice per group. To ensure that a sufficient number of tumor-bearing animals were available for this study, a total of 100 mice were inoculated s.c. in the flank with 1×10^6 FaDu cells. FaDu (HTB-43) human head and neck cancer cells were obtained from ATCC. These cells were grown in EMEM medium supplemented with 10% Fetal Calf Serum (FCS), 1% penicillin and streptomycin, and 2 mM L-Glutamine. […] The flask was incubated at 37° C. until cells detached. Cells were then sub-cultured at a ratio of 1:3. […] Tumors were measured once every two days with micro-calipers, and tumor volume was calculated as (length×width×width)/2. Where animals were euthanized for tumor volume exceeding the maximum permissible by IACUC rules (1500 mm^3) or tumor ulceration, the last measurement was carried forward in calculations of mean tumor volume.\nAll animals were weighed every day and their survival recorded, to assess possible differences in animal weight among treatment groups as an indication of possible toxicity resulting from the treatments. […] Any animals whose tumor grew to over 1500 mm^3 were also euthanized.\nFurther analysis of the tumor volume data was performed by calculating the mean area under the curve (AUC) for the tumor volume for each animal and comparing the groups using an ANOVA on ranks test. Due to the impact of animals euthanized for tumor ulceration or volume in excess of 1500 mm^3, this analysis was performed on data to Day 15 as well as on the full data set to Day 29."}},
  "note": "Where two headings read alike, the source gives them in different places.",
  "data": [
    {"smiles": "N=C(N)NCCCCC(=O)Nc1cc(C(F)(F)F)cc(NC(=O)c2cc(C(=O)Nc3cc(C(F)(F)F)cc(NC(=O)CCCCNC(=N)N)c3OC3CCNC3)ncn2)c1OC1CCNC1", "note": "(centres unmarked) [Compound X]", "values": [
      {"measurement": "mucositis scores vs saline control group (Mann-Whitney rank sum)", "setting": "[1]; 3 mg/mL tid Day 0 until Day 35, Days 11 (p=0.002), 13 (p=0.023), 15-35 (p<0.001)", "value": "statistically significant reductions"},
      {"measurement": "mucositis scores vs Kleptose control group (Mann-Whitney rank sum)", "setting": "[1]; 3 mg/mL tid Day 0 until Day 35, Days 17-35 (p<0.001 for all days)", "value": "statistically significant reductions"},
      {"measurement": "peak mean mucositis score", "setting": "[1]; 3 mg/rid (in Kleptose vehicle), dosed Days 0-3 and 6-9", "value": 3.1},
      {"measurement": "% reduction of animal days with OM scores ≥ 3", "setting": "[1]; Fractionated Radiation", "value": 92.6, "unit": "%"},
      {"measurement": "percentage of hamsters in which an ulcer formed during the study", "setting": "[1]; dosed Day 0 to Day 35, 100% in saline and vehicle controls", "value": 10, "unit": "%"},
      {"measurement": "ulceration rate", "setting": "[1]; dosed Days 0-3 and 6-9, on Day 17, continued until Day 29", "value": 100, "unit": "%"},
      {"measurement": "percentage of animal days with a score of 3 or higher", "setting": "[1]; dosed Days 0-3 and 6-9, saline control 54.7%", "value": 58.0, "unit": "%"},
      {"measurement": "maximum mean mucositis score", "setting": "[1]; dosed Days 0-12, maximum on Days 19, 21 and 23", "value": 3.1},
      {"measurement": "ulceration rate", "setting": "[1]; dosed Days 0-12, on Day 17, continued until Day 27", "value": 100, "unit": "%"},
      {"measurement": "percentage of animal days with a score of 3 or higher", "setting": "[1]; dosed Days 0-12, saline control 54.7%", "value": 58.0, "unit": "%"},
      {"measurement": "maximum mean mucositis score", "setting": "[1]; dosed Days 0-35, maximum on Days 19 and 21", "value": 2.1},
      {"measurement": "ulceration rate", "setting": "[1]; dosed Days 0-35, on Days 15-23 (single hamster)", "value": 10, "unit": "%"},
      {"measurement": "percentage of animal days with a score of 3 or higher (incidence of ulcerative oral mucositis)", "setting": "[1]; dosed Days 0-35, saline control 54.7%, Kleptose vehicle 56.0%, p<0.001", "value": 3.3, "unit": "%"},
      {"measurement": "ulceration rate", "setting": "[1]; dosed Days −1, 4, 5, and 10, on Day 19 only", "value": 100, "unit": "%"},
      {"measurement": "peak mean mucositis score", "setting": "[1]; dosed Days −1, 4, 5, and 10", "value": 3.1},
      {"measurement": "percentage of animal days with a score of 3 or higher", "setting": "[1]; dosed Days −1, 4, 5, and 10, saline control 54.7%", "value": 48.0, "unit": "%"},
      {"measurement": "mucositis scores vs control (Mann-Whitney rank sum)", "setting": "[1]; dosed Days −1, 4, 5 and 10, Days 21 (p=0.018), 23, 25 (p=0.040), 33, 35 (p=0.036)", "value": "statistically significant reductions"},
      {"measurement": "daily mean mucositis scores and number of days animals exhibited ulceration", "setting": "[1]; fractionated radiation model, oral rinse 3 times daily, 35 day treatment regimen", "value": "significantly reduced"},
      {"measurement": "adverse findings in weight gain, general behavior in the home cage, or clinical signs", "setting": "[1]; hamster, in vivo", "value": "no adverse findings"},
      {"measurement": "adverse reaction to treatment", "setting": "[1]; hamster, in vivo", "value": "no evidence of any adverse reaction"},
      {"measurement": "mean tumor volume", "setting": "[2]; 0.06 mg/kg, Day 1", "value": 102, "unit": "mm^3"},
      {"measurement": "mean tumor volume", "setting": "[2]; 0.06 mg/kg, Day 15", "value": 904, "unit": "mm^3"},
      {"measurement": "mean tumor volume", "setting": "[2]; 0.06 mg/kg, Day 27 when final animal in group was euthanized", "value": 2234, "unit": "mm^3"},
      {"measurement": "mean tumor volume", "setting": "[2]; 0.3 mg/kg, Day 1", "value": 96, "unit": "mm^3"},
      {"measurement": "mean tumor volume", "setting": "[2]; 0.3 mg/kg, Day 15", "value": 869, "unit": "mm^3"},
      {"measurement": "mean tumor volume", "setting": "[2]; 0.3 mg/kg, end of the study", "value": 1002, "unit": "mm^3"},
      {"measurement": "mean tumor volume", "setting": "[2]; cisplatin plus Compound X 0.06 mg/kg, Day 1", "value": 100, "unit": "mm^3"},
      {"measurement": "mean tumor volume", "setting": "[2]; cisplatin plus Compound X 0.06 mg/kg, Day 15", "value": 518, "unit": "mm^3"},
      {"measurement": "mean tumor volume", "setting": "[2]; cisplatin plus Compound X 0.06 mg/kg, end of the study", "value": 338, "unit": "mm^3"},
      {"measurement": "mean tumor volume", "setting": "[2]; cisplatin plus Compound X 0.3 mg/kg, Day 1", "value": 104, "unit": "mm^3"},
      {"measurement": "mean tumor volume", "setting": "[2]; cisplatin plus Compound X 0.3 mg/kg, Day 15", "value": 564, "unit": "mm^3"},
      {"measurement": "mean tumor volume", "setting": "[2]; cisplatin plus Compound X 0.3 mg/kg, end of the study", "value": 510, "unit": "mm^3"},
      {"measurement": "p, tumor volume AUC to Day 15 vs vehicle control group (ANOVA on ranks)", "setting": "[2]; cisplatin plus Compound X at 0.06 mg/kg", "value": 0.001},
      {"measurement": "p, tumor volume AUC to Day 15 vs vehicle control group (ANOVA on ranks)", "setting": "[2]; cisplatin plus Compound X at 0.3 mg/kg", "value": 0.002},
      {"measurement": "mice euthanized for tumor volume in excess of 1500 mm^3", "setting": "[2]; groups treated with 0.06 mg/kg IP QD Days 0-28 (alone, with radiation or cisplatin)", "value": 46.7, "unit": "%"},
      {"measurement": "survival at Day 29", "setting": "[2]; groups treated with 0.06 mg/kg", "value": 20, "unit": "%"},
      {"measurement": "mice euthanized for tumor ulceration", "setting": "[2]; groups treated with 0.06 mg/kg", "value": 33.3, "unit": "%"},
      {"measurement": "mice euthanized for tumor volume in excess of 1500 mm^3", "setting": "[2]; groups treated with 0.3 mg/kg IP QD Days 0-28 (alone, with radiation or cisplatin)", "value": 40, "unit": "%"},
      {"measurement": "survival at Day 29", "setting": "[2]; groups treated with 0.3 mg/kg", "value": 36.7, "unit": "%"},
      {"measurement": "mice euthanized for tumor ulceration", "setting": "[2]; groups treated with 0.3 mg/kg", "value": 23.3, "unit": "%"},
      {"measurement": "mean tumor volume", "setting": "[2]; radiation plus 0.06 mg/kg, Day 1", "value": 96, "unit": "mm^3"},
      {"measurement": "mean tumor volume", "setting": "[2]; radiation plus 0.06 mg/kg, Day 15", "value": 596, "unit": "mm^3"},
      {"measurement": "mean tumor volume", "setting": "[2]; radiation plus 0.06 mg/kg, end of the study", "value": 1027, "unit": "mm^3"},
      {"measurement": "mean tumor volume", "setting": "[2]; radiation plus 0.3 mg/kg, Day 1", "value": 108, "unit": "mm^3"},
      {"measurement": "mean tumor volume", "setting": "[2]; radiation plus 0.3 mg/kg, Day 15", "value": 616, "unit": "mm^3"},
      {"measurement": "mean tumor volume", "setting": "[2]; radiation plus 0.3 mg/kg, end of the study", "value": 1376, "unit": "mm^3"},
      {"measurement": "p, tumor volume AUC to Day 15 vs vehicle control group (ANOVA on ranks)", "setting": "[2]; radiation plus Compound X at 0.3 mg/kg", "value": 0.017}
    ]}
  ]
}
